Test results published in US5914313A, “1-[4-hydroxy-5-aminoethyloxy-N^2 -(10,12-dimethyl-1-oxotetradecyl)ornithine]-5-(3-hydroxyglutamine)-6-(3- hydroxyproline)echinocandin B, other aminoalkyl derivatives and salts thereof” (Merck & Co., Inc., priority 1993, dated 1999).

Key:
[1] = system: Pneumocystis carinii; assay: Pneumocystis carinii pneumonia in immunosuppressed rats, reduction of cysts; type: in vivo, Sprague-Dawley rats; conditions: subcutaneous, twice daily for four days
Method: The compounds of the present invention may also be useful for inhibiting or alleviating Pneumocvstis carinii infections in immune compromised patients. […] Before drug treatment, two rats are sacrificed to confirm the presence of Pneumocystis carinii pneumonia (PCP). Five rats (weighing approximately 150 grams) are injected twice daily for four days subcutaneously (sc) with Compound I in 0.25 ml of vehicle (distilled water). A vehicle control is also carried out. All animals continue to receive dexasone in the drinking water and low protein diet during the treatment period. At the completion of the treatment, all animals are sacrificed, the lungs are removed and processed, and the extent of disease determined by microscopic examination of stained slides for the presence of cysts.
The dosage required for 90 percent reduction of cysts with representative compounds may be seen in the following table: […]

[2] = system: Candida albicans MY 1750; assay: Minimum fungicidal concentration (MFC), separate similar experiment; type: cell-based
From the text: (§1) The compounds of the present invention are active against many fungi and as previously indicated particularly against Candida species. The antifungal properties may be illustrated with the minimum fungicidal concentration (MFC) determination against certain Candida organisms in a microbroth dilution assay carried out in a Yeast Nitrogen Base (Difco) medium with 1 percent dextrose (YNBD).
In carrying out the assay, Compound I was solubilized in 10 percent dimethyl sulfoxide (DMSO) and diluted to 2560 μg/ml. The compound was then diluted to 256 μg/ml in YNBD. 0.15 mL of the suspension was dispensed to the top row of a 96-well plate (each well containing 0.15 ml of YNBD) resulting in a drug concentration of 128 μg/ml. Two-fold dilutions were then made from the top row to obtain final drug concentrations ranging from 128 to 0.06 μg/ml. […]
96-well microplates were inoculated using a MIC-2000 (Dynatech) which delivers […] per well yielding a final inoculum per well of 1.5-7.5×10^3 cells. […] The minimum inhibitory concentrations (MICs) were recorded as the lowest concentrations of drug showing no visible growth.
After recording the MIC, the plates were shaken to resuspend the cells. […] The inoculated trays were incubated 24 hours at 28° C. and then read for minimum fungicidal concentration (MFC). […]

[3] = system: human blood cells; assay: Red blood cell lysis, minimum lytic concentration (MLC); type: cell-based; conditions: 2 hours at room temperature, lowest concentration giving complete or partial lysis, tested 400 to 0.20 μg/ml
From the text: A harmful and potentially fatal side reaction of a number of drugs including certain antibiotically active echinocandin compounds is red blood cell lysis. […] The blood cell lysis property may be seen in the determination carried out in the following manner.
The blood employed is a 4 percent suspension of freshly drawn heparinized blood prepared by adding 2 milliliters of blood to 50 milliliters of sterile 5 percent dextrose.
Compoufid I was solubilized in a small volume of dimethylsulfoxide (DMSO) that was then diluted with distilled water to a final concentration of 5 percent DMSO to obtain a drug solution of 4.0 mg/ml. A 0.2 milliliter amount of the drug solution was added to 1.4 milliliters of sterile 5 percent dextrose to obtain the test solution. A diluent control was also prepared.
A 96-well microtiter plate with a well volume of 0.35 ml was used for the assay. Columns 2-12 were filled with 150 µl of sterile 5 percent dextrose. Then, 300 μl of test solutions were dispensed into the wells in column 1 and serially two-fold diluted in 5 percent dextrose to yield final test concentrations of from 400 to 0.20 μg/ml. 38 μl of red blood cell suspension were added to each well, the plate was gently agitated to mix the well contents and incubated at room temperature for 2 hours, and thereafter observed to determine extent of hemolysis as indicated by complete or partial clearing (lysis).

[4] = system: Candida albicans MY 1055; assay: Minimum fungicidal concentration (MFC), microbroth dilution assay in YNBD; type: cell-based; conditions: YNBD medium; MFC = lowest concentration showing no growth or less than 4 colonies per spot
From the text: as §1
(§2) In carrying out the assay, Compound I was solubilized in 10 percent dimethyl sulfoxide (DMSO) and diluted to 2560 μg/ml. The compound was then diluted to 256 μg/ml in YNBD. 0.15 mL of the suspension was dispensed to the top row of a 96-well plate (each well containing 0.15 ml of YNBD) resulting in a drug concentration of 128 μg/ml. Two-fold dilutions were then made from the top row to obtain final drug concentrations ranging from 128 to 0.06 μg/ml.
(§3) The yeast cultures, maintained on Sabouraud dextrose agar were transferred to YN broth (Difco) and incubated overnight at 35° C. with shaking (250 rpm). After incubation, each culture was diluted in sterile water to yield a final concentration of 1-5×10^6 colony forming units (CFU)/ml.
(§4) 96-well microplates were inoculated using a MIC-2000 (Dynatech) which delivers […] per well yielding a final inoculum per well of 1.5-7.5×10^3 cells. The microplates were incubated at 35° C. for 24 hours. The minimum inhibitory concentrations (MICs) were recorded as the lowest concentrations of drug showing no visible growth.
(§5) After recording the MIC, the plates were shaken to resuspend the cells. Thereafter, 1.5 μl samples from the wells in the 96-well microplate were transferred to a single well tray containing Sabouraud dextrose agar. The inoculated trays were incubated 24 hours at 28° C. and then read for minimum fungicidal concentration (MFC). MFC is defined as the lowest concentration of drug showing no growth or less than 4 colonies per spot.

[5] = system: Candida tropicalis MY 1012; assay: as above; type: cell-based; conditions: YNBD medium; MFC = lowest concentration showing no growth or less than 4 colonies per spot
From the text: as §1, §2, §3, §4, §5

[6] = system: Candida albicans MY 1055; assay: In vivo effectiveness: recoverable Candida CFU in kidneys of infected mice; conditions: 0.4 mg/kg I.P. twice daily for four consecutive days; DBA/2 mice; kidneys after seven days
Method: Growth from an overnight SDA culture of Candida albicans MY 1055 was suspended in sterile saline and the cell concentration determined by hemacytometer count and the cell suspension adjusted to 3.75×10^5 cells/ml. Then 0.2 milliliter of this suspension was administered I.V. in the tail vein of mice so that the final inoculum was 7.5×10^4 cells/mouse.
The assay then was carried out by administering aqueous solutions of Compound I (R1 =--CH2 CH2 NH2) at various concentrations intraperitoneally (I.P.), twice daily (b.i.d.) for four consecutive days to 18 to 20 gram female DBA/2 mice, which previously had been infected with Candida albicans (MY 1055) in the manner described above. Distilled water was administered I.P. to C. albicans challenged mice as controls. After seven days, the mice were sacrificed by carbon dioxide gas, paired kidneys were removed aseptically and placed in sterile polyethylene bags containing 5 milliters of sterile saline. The kidneys were homogenized in the bags, serially diluted in sterile saline and aliquots spread on the surface of SDA plates. The plates were incubated at 35° C. for 48 hours and yeast colonies were enumerated for determination of colony forming units (CFU) per-gram of kidneys.

Row | Substance | dosage required for 90 percent reduction of cysts [1] | MFC C. albicans MY 1750 [2] | MLC (minimum lytic concentration) [3] | MFC C. albicans MY 1055 [4] | MFC C. tropicalis MY 1012 [5] | reduction of recoverable Candida CFUs (kidneys) [6]
1 | Glycylaminoethyloxy Ether as the Trifluoroacetate [--CH2 CH2 NHCOCH2 NH2 / DMTD] | 0.04 mg/kg | 0.50 µg/mL | > 400 µg/mL | 1.0 µg/mL | 0.5 µg/mL | 
2 | 1-[4-hydroxy-5-aminoethyloxy-N^2 -(10,12-dimethyl-1-oxotetradecyl)ornithine]-5-(3-hydroxyglutamine)-6-(3-hydroxyproline) echinocandin B trifluoroacetate [--CH2 CH2 NH2 / DMTD] |  |  |  | 0.125 µg/mL | 0.25 µg/mL | greater than 99%
